Experiments:
[1] = target: T1, 5-HT2A receptor (Homo sapiens, UniProt P28223); experiment: cell-based; type: cell-based; settings: for 5-HT2A % Act @ Max Dose / EC50: Ca^2+ flux, agonist; for EC50: read-out: 5-HT2A EC50
T1 construct: host or cells: HEK293
Experimental: (§1) Functional Assays at 5-HT2A, 5-HT2B, and 5-HT1A. Agonist activity at 5-HT2A, 5-HT2B, and 5-HT1A receptors was determined using a FLIPR Ca^2+ flux assay at WuXi AppTec (Hong Kong) Limited according to their standard protocols. Briefly, stably transfected cells expressing the receptor of interest (HEK293 for 5-HT2A and 5-HT2B; CHO cells for 5-HT1A) were grown and plated in a 384 well plate and incubated at 37° C. and 5% CO2 overnight. A solution of 250 mM probenecid in 1 mL FLIPR assay buffer was prepared fresh. This was combined with a fluorescent dye (Fluo-4 Direct™) to make a final assay concentration of 2.5 mM. […] The fluorescent dye was then added to the assay plate along with assay buffer to a final volume of 40 μL. The cell plate was incubated for 50 min at 37° C. and 5% CO2 and placed into the FLIPR Tetra along with the compound plate. 10 μL of references and compounds were then transferred from the compound plate into the cell plate and the fluorescent signal was read.

[2] = target: 5-HT1B receptor (Homo sapiens, UniProt P28222); experiment: cAMP accumulation agonist assay at 5-HT1B; type: cell-based; settings: cAMP, agonist; for EC50: read-out: 5-HT1B EC50
Experimental: Disclosed compounds were tested for agonist activity at several serotonin receptor subtypes (5-HT2A, […], 5-HT2C, and 5-HT1A) using Ca^2+ flux functional assays and the 5-HT1B receptor using a cAMP accumulation assay, with the results summarized in Table 4. […] Potent agonist activity was also observed at the other serotonin receptors tested, although the selectivity profile among the receptors varied across compounds. […]. However, at the same time, the N-propyl compounds were more efficacious agonists at 5-HT2B than the corresponding N-methyl compounds. The selectivity of disclosed compounds for 5-HT2A over 5-HT2C and 5-HT1A was less predictable and varied widely across compounds, ranging from ˜1:6 to ˜20:1 (2C/2A) in the case of 5-HT2C and from ˜1:4 to >100:1 (1A/2A) in the case of 5-HT1A. […] An azetidinyl amide substituent tended to increase potency at 5-HT1A relative to 5-HT2A.
Functional Assay at 5-HT1B. Agonist activity at 5-HT1B was determined using a cAMP accumulation protocol at WuXi AppTec (Hong Kong) Limited according to their standard protocols. Briefly, stably transfected cells were plated in an OptiPlate-384 well plate, incubated at RT for 60 mins, and cAMP standard solution (800 nM, 10 μL) was added to the blank well. Then, 10 μL detection reagent was added to each well, the plate incubated for 60 mins at RT, and the plate read using EnVision.

[3] = Metabolic stability in human liver microsomes (HLM); type: in vitro ADME; settings: both sexes, human, pooled human liver microsomes, pH 7.4, 0.50 mg protein per mL
Description: HLM Stability. Pooled HLM from adult male and female donors (Corning 452117) were used.

[4] = target: T1, 5-HT2A receptor; experiment: biochemical; type: binding; settings: 1 nM [^3H]ketanserin, HEK293 stable cell line; read-out: 5-HT2A Receptor Ki (nM) ([^3H]ketanserin)
Experimental: Affinity of the test compounds for the 5-HT2A receptor was determined in radioligand binding experiments with [^3H]ketanserin by WuXi AppTec (Hong Kong) Limited, using methods adapted from the literature and under conditions described in Table 1.

[5] = target: T2, 5-HT1A receptor (Homo sapiens, UniProt P08908); experiment: cell-based; settings: Ca^2+ flux, agonist; for EC50: read-out: 5-HT1A EC50
T2 construct: host or cells: CHO cells
T2 sequence (P08908 1-422): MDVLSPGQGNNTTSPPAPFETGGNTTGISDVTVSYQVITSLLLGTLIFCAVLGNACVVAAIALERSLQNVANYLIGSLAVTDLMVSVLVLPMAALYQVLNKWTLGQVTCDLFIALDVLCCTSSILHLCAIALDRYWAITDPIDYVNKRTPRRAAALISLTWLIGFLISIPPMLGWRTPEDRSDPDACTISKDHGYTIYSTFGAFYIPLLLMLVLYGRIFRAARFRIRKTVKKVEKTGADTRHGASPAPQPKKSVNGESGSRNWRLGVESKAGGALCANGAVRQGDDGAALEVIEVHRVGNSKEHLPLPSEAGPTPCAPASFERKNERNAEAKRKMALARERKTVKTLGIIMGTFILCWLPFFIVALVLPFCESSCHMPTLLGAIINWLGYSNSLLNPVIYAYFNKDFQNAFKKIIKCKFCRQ
Experimental: as §1

[6] = target: T3, 5-HT2B receptor (Homo sapiens, UniProt P41595); experiment: cell-based; settings: Ca^2+ flux, agonist; for EC50: read-out: 5-HT2B EC50
T3 construct: host or cells: HEK293
Experimental: as §1

5-HT1B receptor, sequence (P28222 whole entry): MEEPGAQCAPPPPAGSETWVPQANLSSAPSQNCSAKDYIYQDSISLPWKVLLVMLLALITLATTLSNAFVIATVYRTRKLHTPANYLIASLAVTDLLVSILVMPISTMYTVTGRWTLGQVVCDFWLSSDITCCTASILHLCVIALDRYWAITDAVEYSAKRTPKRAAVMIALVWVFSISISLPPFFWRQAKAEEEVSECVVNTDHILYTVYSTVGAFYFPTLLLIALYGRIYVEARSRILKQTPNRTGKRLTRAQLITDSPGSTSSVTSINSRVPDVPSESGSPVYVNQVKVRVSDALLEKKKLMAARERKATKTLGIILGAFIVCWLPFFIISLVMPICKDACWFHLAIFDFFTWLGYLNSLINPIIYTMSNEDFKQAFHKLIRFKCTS
T3 sequence (P41595 whole entry): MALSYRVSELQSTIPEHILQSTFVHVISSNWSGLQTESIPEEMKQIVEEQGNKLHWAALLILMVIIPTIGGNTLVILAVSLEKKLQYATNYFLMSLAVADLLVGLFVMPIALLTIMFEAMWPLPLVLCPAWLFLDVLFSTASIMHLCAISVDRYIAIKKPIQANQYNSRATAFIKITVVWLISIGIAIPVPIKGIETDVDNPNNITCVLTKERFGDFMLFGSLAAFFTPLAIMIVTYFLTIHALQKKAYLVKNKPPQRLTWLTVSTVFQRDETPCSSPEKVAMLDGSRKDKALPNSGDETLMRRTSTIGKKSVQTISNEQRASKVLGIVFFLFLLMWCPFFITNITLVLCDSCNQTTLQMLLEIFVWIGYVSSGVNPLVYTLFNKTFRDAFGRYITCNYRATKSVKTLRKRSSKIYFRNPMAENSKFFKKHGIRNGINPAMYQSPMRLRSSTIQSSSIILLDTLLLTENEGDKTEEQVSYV
T1 sequence (P28223 whole entry): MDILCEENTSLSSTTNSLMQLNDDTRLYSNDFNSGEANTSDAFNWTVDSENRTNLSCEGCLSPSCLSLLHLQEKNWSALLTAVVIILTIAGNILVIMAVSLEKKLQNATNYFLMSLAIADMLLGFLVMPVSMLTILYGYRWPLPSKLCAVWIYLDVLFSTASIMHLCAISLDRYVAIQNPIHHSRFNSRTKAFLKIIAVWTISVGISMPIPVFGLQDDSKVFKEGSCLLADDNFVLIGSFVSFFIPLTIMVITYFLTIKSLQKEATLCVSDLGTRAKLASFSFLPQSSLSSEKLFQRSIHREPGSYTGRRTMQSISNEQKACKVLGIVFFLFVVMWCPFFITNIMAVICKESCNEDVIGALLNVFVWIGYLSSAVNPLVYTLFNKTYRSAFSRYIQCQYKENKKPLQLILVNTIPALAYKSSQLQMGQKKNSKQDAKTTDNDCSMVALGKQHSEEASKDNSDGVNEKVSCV

SMILES | 5-HT2A % Act @ Max Dose [1] | EC50 [1] | selectivity for 5-HT2A compared to the other serotonin receptors tested (in words) ([1]; functional agonist assays) | 5-HT1B % Act @ Max Dose [2] | EC50 [2] | half-life at 1 μM [3] | microsomal CLint at 1 μM [3] | Ki [4] | 5-HT1A % Act @ Max Dose [5] | EC50 [5] | 5-HT2B % Act @ Max Dose [6] | EC50 [6] | agonist activity at serotonin receptors (in words) ([1]; Ca^2+ flux / cAMP functional assays, receptors tested)
CC[C@@H](C)NC(=O)[C@@H]1C=C2c3cccc4[nH]cc(c34)C[C@H]2N(CCC(F)(F)F)C1 [Compound 40, (6aR,9R)—N—((R)-sec-butyl)-7-(3,3,3-trifluoropropyl)-4,6,6a,7,8,9-hexahydroindolo[4,3-fg]quinoline-9-carboxamide] | 45.12% | 169 nM | highly selective | 62.14% | 8310 nM | 3.2 min | 435 µL/min/mg | 37.7 nM | 22.27% | > 10000 nM | 8.46% | > 10000 nM | –
CCN(CC)C(=O)[C@@H]1C=C2c3cccc4[nH]c(Br)c(c34)C[C@H]2N(CCCF)C1 [Compound 41, (6aR,9R)-5-bromo-N,N-diethyl-7-(3-fluoropropyl)-4,6,6a,7,8,9-hexahydroindolo[4,3-fg]quinoline-9-carboxamide] | 75.44% | 116 nM | – | 61.49% | > 10000 nM | 10.7 min | 130 µL/min/mg | 0.58 nM | 39.75% | > 10000 nM | 84.51% | 509 nM | –
CCN(CC)C(=O)[C@@H]1C=C2c3cccc4[nH]c(Br)c(c34)C[C@H]2N(CCC(F)(F)F)C1 [Compound 42, (6aR,9R)-5-bromo-N,N-diethyl-7-(3,3,3-trifluoropropyl)-4,6,6a,7,8,9-hexahydroindolo[4,3-fg]quinoline-9-carboxamide] | 8.29% | > 1000 nM | – | 33.13% | > 10000 nM | 11.1 min | 125 µL/min/mg | 1.84 nM | 9.13% | > 10000 nM | 2.58% | > 10000 nM | no agonist activity
CC[C@@H](C)NC(=O)[C@@H]1C=C2c3cccc4[nH]c(Br)c(c34)C[C@H]2N(C)C1 [Compound 43, (6aR,9R)-5-bromo-N—((R)-sec-butyl)-7-methyl-4,6,6a,7,8,9-hexahydroindolo[4,3-fg]quinoline-9-carboxamide] | 39.32% | 118 nM | – | 83.76% | 311 nM | 24.8 min | 56 µL/min/mg | 1.13 nM | 6.30% | > 10000 nM | 1.00% | > 10000 nM | –
CCC(CC)NC(=O)[C@@H]1C=C2c3cccc4[nH]c(Br)c(c34)C[C@H]2N(C)C1 [Compound 44, (6aR,9R)-5-bromo-N-(pentan-3-yl)-7-methyl-4,6,6a,7,8,9-hexahydroindolo[4,3-fg]quinoline-9-carboxamide] | 29.90% | 129 nM | – | 68.53% | 1270 nM | 9 min | 153 µL/min/mg | 0.76 nM | 16.56% | > 10000 nM | 15.68% | > 10000 nM | –
CCC[C@@H](C)NC(=O)[C@@H]1C=C2c3cccc4[nH]c(Br)c(c34)C[C@H]2N(C)C1 [Compound 45, (6aR,9R)-5-bromo-N—((R)-pentan-2-yl)-7-methyl-4,6,6a,7,8,9-hexahydroindolo[4,3-fg]quinoline-9-carboxamide] | 22.28% | 133 nM | – | 87.10% | 245 nM | 7.9 min | 176 µL/min/mg | 0.38 nM | 12.53% | > 10000 nM | −0.31% | > 10000 nM | –
CCCN1C[C@H](C(=O)N[C@H](C)CC)C=C2c3cccc4[nH]c(Br)c(c34)C[C@H]21 [Compound 46, (6aR,9R)-5-bromo-N—((R)-sec-butyl)-7-propyl-4,6,6a,7,8,9-hexahydroindolo[4,3-fg]quinoline-9-carboxamide] | 69.48% | 110 nM | – | 78.76% | 1180 nM | 3.2 min | 427 µL/min/mg | 1.03 nM | 69.48% | 707 nM | 79.00% | 788 nM | –
CCCN1C[C@H](C(=O)N2[C@@H](C)C[C@@H]2C)C=C2c3cccc4[nH]c(Br)c(c34)C[C@H]21 [Compound 47, ((6aR,9R)-5-bromo-7-propyl-4,6,6a,7,8,9-hexahydroindolo[4,3-fg]quinolin-9-yl)((2S,4S)-2,4-dimethylazetidin-1-yl)methanone] | 57.01% | 117 nM | – | 76.22% | 4960 nM | 5.6 min | 249 µL/min/mg | 1.38 nM | 62.15% | 93.6 nM | 87.01% | 1440 nM | –

Source: patent publication US20230116703A1, “NOVEL ERGOLINES AND METHODS OF TREATING MOOD DISORDERS” (priority 2021, published 2023)
